Assay results: PubChem BioAssay AID732 (Emory University Molecular Libraries Screening Center, 2007)
Where “and” joins values, the source holds several entries; their conditions need not be identical. Equal entries are not always repeated. Calls of active or inactive are those of the source. No rule for the calls is given here.

What follows are compounds tested on in vivo angiogenesis, blood vessel count (assay: reduction of blood vessel formation in vivo – HTS, in vivo study (AID 732;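 also: zebrafish embryos dosed at one day post fertilization; 0% = reference inhibitor and 100% = plate mean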)). Conditions: active compounds read low;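 tested at 30 µM in the well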.

SMILES | vessel count % control
CC(CN(C)C)CN1c2ccccc2CCc2ccccc21 (centres undefined) | 97.1% (inactive)
C#CCN1C(C)=C(C(=O)OC)C(c2cccc([N+](=O)[O-])c2)C(C(=O)OCC)=C1C (centres undefined) | 132% (inactive)
CCN(c1nc(N)c(C(=O)N=C(N)N)nc1Cl)C(C)C | 73.9% (inactive)
O=C1Cc2c([nH]c3ccc(Br)cc23)-c2ccccc2N1 | 101% (inactive)
CC(=O)O[C@H]1C(=O)[C@@]2(C)C([C@H](OC(=O)c3ccccc3)[C@]3(O)C[C@H](OC(=O)[C@H](O)[C@@H](NC(=O)c4ccccc4)c4ccccc4)C(C)=C1C3(C)C)[C@]1(OC(C)=O)CO[C@@H]1C[C@@H]2O (some centres undefined) | 82.3% (inactive)
NC1C=CC=C(C(=O)O)C1 (centres undefined) | 114% (inactive)
O=C(O)c1cccnc1C(=O)O | 88.1% (inactive)
CCN(CC)CCOCCOC(=O)C1(c2ccccc2)CCCC1 | 108% (inactive)
Cc1cc(C)c(NC(=O)C[C@H](CC(=O)O)c2cccc3ccccc23)c(C(=O)N2CCC3(CCCC3)CC2)c1 | 108% (inactive)
COc1cc(CC(C)N)c(OC)cc1I (centres undefined) | 79.5% (inactive)
CC(C)(C)NCC(O)COc1cccc2[nH]c(=O)[nH]c12 (centres undefined) | 103% (inactive)
C[C@@H](NCCc1ccc(O)cc1)[C@@H](O)c1ccc(O)cc1 | 92.9% (inactive)
c1ccc2c(c1)CCCC2C1=NCCN1 (centres undefined) | 76% (inactive)
CN(C)C(=O)/N=N/C(=O)N(C)C | 110% (inactive)
COc1ccccc1N1CCN(CCN2C(=O)CC3(CCCC3)CC2=O)CC1 | 89.5% (inactive)
CC#CCOC(=O)c1c(C)nc2sc3c(c2c1N)CCC(O)C3 (centres undefined) | 116% (inactive)
OCc1cnc[nH]1 | 106% (inactive)
COc1cc2c(cc1OC)[C@@H](c1ccccc1)CN(C)CC2 | 91.5% (inactive)
Nc1nc(SCc2ccc([N+](=O)[O-])cc2)c2ncn([C@@H]3O[C@H](CO)[C@H](O)C3O)c2n1 (some centres undefined) | 112% (inactive)
CCCCCCCC/C=C\CCCCCCCC(=O)NCCc1ccc(O)c(O)c1 | 115% (inactive)
CC1=C(C)C(=O)C(CCCCC#CCCCC#CCO)=C(C)C1=O | 88.8% (inactive)
CC(C)NNC(=O)c1ccncc1 | 118% (inactive)
CC1=C(C(=O)O)N2C(=O)[C@@H](NC(=O)C(N)c3ccccc3)[C@H]2SC1 (some centres undefined) | 93.6% (inactive)
CC(O)C(O)[C@H]1CNc2nc(N)[nH]c(=O)c2N1 (some centres undefined) | 125% (inactive)
COc1ccc2c(c[n+](C)c3c4cc5c(cc4ccc23)OCO5)c1OC | 124% (inactive)

SMILES | vessel count % control
CCCCCCCCCC[Si](C)(C)CCC(=O)NC(Cc1ccc(C)cc1)c1ccccc1 (centres undefined) | 109% (inactive)
CC(C)C1C2CCC(C2)C1N (centres undefined) | 95.1% (inactive)
O=c1cc(-c2ccccc2)[nH]c2nc(Cl)ccc12 | 0% (inactive)
CN(C)c1ccc(/C=C2\C(=O)Nc3ccccc32)cc1 | 36.7%
Oc1ccc2c3c1O[C@H]1[C@@H](O)CC[C@@]4(O)C(C2)N(CC2CCC2)CCC314 (some centres undefined) | 81.2% (inactive)
CC(N)=NCCC[C@H](N)C(=O)O | 134% (inactive)
CCN(CC)CCNC(=O)c1ccc(NC(C)=O)cc1 | 117% (inactive)
CCCN1CCO[C@@H]2c3cc(O)ccc3OC[C@H]21 | 69.9% (inactive) and 97.2% (inactive)
Cc1ccc(O)c(N=Nc2ccccc2)n1 | 112% (inactive)
Oc1cc2c(cc1O)CN(C(=S)NCCc1ccc(Cl)cc1)CCC2 | 93.3% (inactive)
O=C(O)C1=CCCNC1 | 114% (inactive)
Cn1c(=O)c2c(nc(/C=C/c3cccc(Cl)c3)n2C)n(C)c1=O | 72.9% (inactive)
COC(=O)N1CCN(C(=O)Cc2ccc(Cl)c(Cl)c2)C(CN2CCCC2)C1 (centres undefined) | 116% (inactive)
COC(=O)[C@H](NC(=O)c1cc(-c2ccccc2)nc2ccccc12)c1ccccc1 | 97.2% (inactive)
S=C(Nc1ccccc1)Nc1nccs1 | 61.2% (inactive)
Cn1cc(C(=O)OCC2CCN(CCNS(C)(=O)=O)CC2)c2ccccc21 | 106% (inactive)
Cc1ccc2[nH]c(O)c(C3=Nc4ccc(Br)cc4C3=O)c2c1 | 108% (inactive)
CN1CCN(c2ccc3ccccc3n2)CC1 | 104% (inactive)
C[Se]C[C@H](N)C(=O)O | 103% (inactive)
CC(CN1c2ccccc2Sc2ccccc21)N(C)C (centres undefined) | 97.7% (inactive)
Clc1cccc(N2CCNCC2)c1 | 101% (inactive)
CCOC(=O)C12CC1/C(=N/O)c1ccccc1O2 (centres undefined) | 104% (inactive)
CCC(C)N(C)C(=O)c1cc2ccccc2c(-c2ccccc2Cl)n1 (centres undefined) | 102% (inactive)
CS(=O)(=O)Nc1ccc([N+](=O)[O-])cc1Oc1ccccc1 | 80.2% (inactive)
C#CC(N)CCC(=O)O (centres undefined) | 80% (inactive)

SMILES | vessel count % control
c1ccc2c(c1)[I+]c1ccccc1-2 | 112% (inactive)
CN(C)CC/C=C1\c2ccccc2COc2ccccc21 | 97.3% (inactive)
CC(C)COC(=O)OCN1C(=O)CN(CCN2CC(=O)N(COC(=O)OCC(C)C)C(=O)C2)CC1=O | 104% (inactive)
C[N+]1(C)C2CCC1CC(OC(=O)C(CO)c1ccccc1)C2 (centres undefined) | 77.4% (inactive) and 108% (inactive)
CN1CCN2c3ccccc3Cc3ccccc3C2C1 (centres undefined) | 72.3% (inactive)
N[C@@H](CCl)C(=O)O | 101% (inactive)
O=C(CCNNC(=O)c1ccncc1)NCc1ccccc1 | 67.2% (inactive)
Oc1ccc2c3c1O[C@H]1c4oc5ccccc5c4C[C@@]4(O)C(C2)N(CC2CC2)CCC314 (some centres undefined) | 93.1% (inactive)
CCCN(CCC)CCc1ccc(O)c(O)c1 | 86.9% (inactive)
COc1ccc(CCN(C)CCCC(C#N)(c2cc(OC)c(OC)c(OC)c2)C(C)C)cc1OC (centres undefined) | 102% (inactive)
COCc1nc2c([nH]1)c(=O)n(C)c(=O)n2CC(C)C | 93% (inactive)
CC1(C(=O)O)C2CCC(O2)C1(C)C(=O)O (centres undefined) | 0% (inactive)
CN1C(=O)CC[C@H]1c1cccnc1 | 110% (inactive)
CCCN(CCC)[C@@H]1CCc2ccc(O)cc2C1 | 93.2% (inactive)
CN(N=O)c1cc(O)ccc1O | 88% (inactive)
N[C@@H](CCCC(=O)O)C(=O)O | 130% (inactive)
C=CC1(C)CC(=O)C2(O)C(C)(O1)C(OC(C)=O)C(O)C1C(C)(C)CCC(O)C12C (centres undefined) | 97% (inactive)
NC(Cc1cc(O)c(O)cc1O)C(=O)O (centres undefined) | 88.2% (inactive)
CC(C)CC(NP(=O)(O)O[C@@H]1O[C@@H](C)[C@H](O)[C@@H](O)[C@H]1O)C(=O)NC(Cc1c[nH]c2ccccc12)C(=O)O (some centres undefined) | 118% (inactive)
CCN1CCC[C@H]1CNC(=O)c1c(O)c(Cl)cc(Cl)c1OC | 103% (inactive)
NC(=O)CN1CCCC1=O | 99.2% (inactive)
O=c1[nH]cnc2[nH]ncc12 | 120% (inactive)
CN1CCC(c2c[nH]c3ccc(O)cc23)CC1 | 95.9% (inactive)
O=C(CCCN1CCC2(CC1)C(=O)NCN2c1ccccc1)c1ccc(F)cc1 | 77.9% (inactive)
O=[N+]([O-])c1cccc2cn[nH]c12 | 136% (inactive)

SMILES | vessel count % control
CC(=O)NCCc1c[nH]c2ccccc12 | 103% (inactive)
COc1ccc2c(c1O)-c1cccc3c1[C@@H](C2)N(C)CC3 | 90.5% (inactive)
CC(N)Cc1c[nH]c2ccc(O)cc12 (centres undefined) | 99.1% (inactive)
C=CCN1C[C@@H](C)N([C@H](c2ccc(C(=O)N(CC)CC)cc2)c2cccc(OC)c2)C[C@@H]1C | 85.2% (inactive)
Cc1ccc(/C(=C\CN2CCCC2)c2ccccn2)cc1 | 80% (inactive)
CCN1C[C@]2(C)CC[C@H](O)[C@@]34C5C[C@@H]6[C@@H](OC)C[C@@](O)(C5[C@H]6O)[C@@H](CC23)C14 (some centres undefined) | 76.7% (inactive)
CCCN(CCC)C1CCc2ccc(O)cc2C1 (centres undefined) | 87.6% (inactive)
O=C1CC[C@@]2(O)C3Cc4ccc(O)c5c4C2(CCN3CC2CC2)[C@H]1O5 (some centres undefined) | 73.7% (inactive)
CC(C)NC[C@H](O)c1ccc(O)c(O)c1 | 98.1% (inactive) and 72.7% (inactive)
NC(=O)OCC(COC(N)=O)c1ccccc1 | 62.7% (inactive)
O=C1CCC(N2C(=O)c3ccccc3C2=O)C(=O)N1 (centres undefined) | 108% (inactive)
C=C[C@H]1CN2CCC1C[C@@H]2[C@@H](O)c1ccnc2ccc(OC)cc12 (some centres undefined) | 149% (inactive)
CCOC(=O)N1CCC(=C2c3ccc(Cl)cc3CCc3cccnc32)CC1 | 103% (inactive)
Cc1cc(C(C)(C)C)c(O)c(C)c1CC1=NCCN1 | 106% (inactive)
CC(C)(C=O)Cc1cc(C(C)(C)C)c(O)c(C(C)(C)C)c1 | 98.1% (inactive)
Cc1ccc(=O)n(-c2ccccc2)c1 | 92.7% (inactive)
Cc1nc2sccn2c(=O)c1CCN1CCC(=C(c2ccc(F)cc2)c2ccc(F)cc2)CC1 | 68.8% (inactive)
CCCCCCCCCCCCCCCC(=O)NCC(COP(=O)([O-])OCC[N+](C)(C)C)OCC (centres undefined) | 115% (inactive)
O=C(O)CCc1nc(-c2ccccc2)c(-c2ccccc2)o1 | 73.7% (inactive)
COC1(C2=NCCN2)COc2ccccc2O1 (centres undefined) | 121% (inactive)
CCC1(O)CC2CN(CCc3c([nH]c4ccccc34)[C@@](C(=O)OC)(c3cc4c(cc3OC)N(C)C3[C@]45CCN4CC=C[C@@](CC)([C@@H](OC(C)=O)[C@]3(O)C(=O)OC)[C@H]45)C2)C1 (some centres undefined) | 112% (inactive)
CNC[C@H](O)c1ccc(O)c(O)c1 | 94% (inactive)
CN[C@@H](C)[C@H](O)c1ccccc1 | 91.4% (inactive)
Cn1cnc2c(NC3CCCC3)ncnc21 | 95.9% (inactive)
